Test results as given in patent publication US4148907A, “Stereoisomers of 1-(1'benzyl-2'pyrryl)-2-di-sec.-butylaminoethanol and pharmaceutical compositions comprising same” (Etablissement Viridis, priority 1976, dated 1979).

Columns and labels:
[1] = Therapeutic index (LD50/ED50 tail flick); format: in vivo; details: ratio of LD50/ED50, ED50 from the tail flick test
Source text: The superiority of new Compounds A and B is also evident from the therapeutic indexes which have been calculated as a ratio of LD50 /ED50' taking as the ED50 value that which is obtained by the tail flick test.

[2] = compared with other isomers, racemic compound or the disclosed class; cited from earlier work
mice [3] = details: comparison values given under identical conditions (Pharmacological Research Communications 8, 111 (1976)); cited from earlier work
[4] = Analgesic activity, comparison in words (hot plate and tail flick data); format: in vivo; details: compared with VIMINOLO
Procedure: (§1) [α]436^20 (in methanol c= 2%): -48° C.±3° C. The analgesic activity (ED50) of isomers A and B has been determined via the hot plate test on mice (N/.B Eddy et Coll. J. Pharmacol. 98, 121, 1950) and via the "tail flick" test on rats (D'Amour and Smith; J. Pharmacol. 1941, 72, 74). The resulting values are set forth in the following Table and compared with the values given under identical conditions for VIMINOLO and the "R2 " Compound referred to hereinabove (Pharmacological Research Communications 8, 111 (1976)).

[5] = Acute toxicity (LD50), method of Litchfield and Wilcoxson; details: in vivo, ip
Source text: The acute toxicity values (LD50) have been determined by the method of Litchfield and Wilcoxson (J. Pharmacol. 1949, 96, 99) both for the new compounds of this invention and for VIMINOLO and the "R2 " Compound.

rats [6] = details: comparison values given under identical conditions (Pharmacological Research Communications 8, 111 (1976)); cited from earlier work
mice [7] = assay: Hot plate test on mice (analgesic activity, ED50); format: in vivo; details: Mus musculus, sc
Procedure: as §1

rats [8] = assay: "tail flick" test on rats (analgesic activity, ED50); format: in vivo; details: Rattus norvegicus, sc
Procedure: as §1

| SMILES | T.I. (therapeutic index) [1] | analgesic activity (prior patents) [2] | ED50 hot plate s.c (mice [3]) [mg/kg] | analgesic activity relative to VIMINOLO [4] | LD50 [5] [mg/kg] | ED50 Tail Flick s.c. (rats [6]) [mg/kg] | ED50 (mice [7]) [mg/kg] | ED50 (rats [8]) [mg/kg] |
| --- | --- | --- | --- | --- | --- | --- | --- | --- |
| CCC(C)N(CC(O)c1cccn1Cc1ccccc1Cl)C(C)CC (single isomer, unassigned) ["R2 " Compound] | 324 | much more active than the other isomers and also, more active than the corresponding racemic compound "VIMINOLO" | 1.15 | surprisingly more active than VIMINOLO | 230 | 0.71 |  |  |
| CC[C@@H](C)N(CC(O)c1cccn1Cc1ccccc1F)[C@H](C)CC (single isomer, unassigned) [Isomer A] | 872 |  |  |  | 384 |  | 0.65 | 0.44 |
| CC[C@@H](C)N(CC(O)c1cccn1Cc1ccccc1C(F)(F)F)[C@H](C)CC (single isomer, unassigned) [Isomer B] | 942 |  |  |  | 358 |  | 0.6 | 0.38 |
| CCC(C)N(CC(O)c1cccn1Cc1ccccc1Cl)C(C)CC (stereo not drawn) [VIMINOLO, 1-[1'(o-chlorobenzyl)-2'-pyrryl]-2-di-sec.-butylaminoethanol] | 13.36 | most active compound within the disclosed class of aminoethanols |  |  | 167 | 12.5 |  |  |
